Source: ChEMBL document CHEMBL4138123, “Design, synthesis and biological evaluation of novel pyrazolochalcones as potential modulators of PI3K/Akt/mTOR pathway and inducers of apoptosis in breast cancer cells” (Eur J Med Chem, 2017)

How the values were obtained:
Type in all cases: functional
SW-620 = experiment: Cytotoxicity against human SW620 cells assessed as growth inhibition after 48 hrs by sulforhodamine B assay; details: SW-620, 48 h
MDA-MB-435 [1] = experiment: Cytotoxicity against human MDA-MB-435 cells assessed as cell growth at 10 uM after 48 hrs by sulforhodamine B assay relative to control; details: MDA-MB-435, 48 h, read-out: Activity
HCT-116 = experiment: Cytotoxicity against human HCT116 cells assessed as cell growth at 1 uM after 48 hrs by sulforhodamine B assay relative to control; details: HCT-116, 48 h, read-out: Activity
A549 [2] = experiment: Cytotoxicity against human A549/ATCC cells assessed as cell growth at 0.01 uM after 48 hrs by sulforhodamine B assay relative to control; details: A549, 48 h, read-out: Activity
MCF7 = experiment: Cytotoxicity against human MCF7 cells assessed as cell growth at 100 uM after 48 hrs by sulforhodamine B assay relative to control; details: MCF7, 48 h, read-out: Activity
A549 [3] = experiment: Cytotoxicity against human A549/ATCC cells assessed as cell growth at 1 uM after 48 hrs by sulforhodamine B assay relative to control; details: A549, 48 h, read-out: Activity
NCI-H322M = experiment: Cytotoxicity against human NCI-H322M cells assessed as cell growth at 0.01 uM after 48 hrs by sulforhodamine B assay relative to control; details: read-out: Activity
HCT-15 = experiment: Cytotoxicity against human HCT15 cells assessed as cell growth at 0.01 uM after 48 hrs by sulforhodamine B assay relative to control; details: HCT-15, 48 h, read-out: Activity
RPMI-8226 [4] = experiment: Cytotoxicity against human RPMI8226 cells assessed as growth inhibition after 48 hrs by sulforhodamine B assay; details: RPMI-8226, 48 h
MOLT-4 [5] = experiment: Cytotoxicity against human MOLT4 cells assessed as cell growth at 100 uM after 48 hrs by sulforhodamine B assay relative to control; details: MOLT-4, 48 h, read-out: Activity
UO-31 = experiment: Cytotoxicity against human UO31 cells assessed as cell growth at 1 uM after 48 hrs by sulforhodamine B assay relative to control; details: UO-31, 48 h, read-out: Activity
MDA-MB-435 [6] = experiment: Cytotoxicity against human MDA-MB-435 cells assessed as cell growth at 1 uM after 48 hrs by sulforhodamine B assay relative to control; details: MDA-MB-435, 48 h, read-out: Activity
COLO 205 [7] = experiment: Cytotoxicity against human COLO205 cells assessed as cell growth at 0.1 uM after 48 hrs by sulforhodamine B assay relative to control; details: COLO 205, 48 h, read-out: Activity
HCC 2998 [8] = experiment: Cytotoxicity against human HCC2998 cells assessed as growth inhibition after 48 hrs by sulforhodamine B assay; details: HCC 2998, 48 h
MOLT-4 [9] = experiment: Cytotoxicity against human MOLT4 cells assessed as cell growth at 0.1 uM after 48 hrs by sulforhodamine B assay relative to control; details: MOLT-4, 48 h, read-out: Activity
SR = experiment: Cytotoxicity against human SR cells assessed as growth inhibition after 48 hrs by sulforhodamine B assay; details: for CC50: read-out: LC50 (the source's name)
SNB-19 = experiment: Cytotoxicity against human SNB19 cells assessed as growth inhibition after 48 hrs by sulforhodamine B assay; details: SNB-19, 48 h; for CC50: read-out: LC50 (the source's name)
SK-OV-3 = experiment: Cytotoxicity against human SKOV3 cells assessed as growth inhibition after 48 hrs by sulforhodamine B assay; details: SK-OV-3, 48 h
M14 = experiment: Cytotoxicity against human M14 cells assessed as cell growth at 100 uM after 48 hrs by sulforhodamine B assay relative to control; details: M14, 48 h, read-out: Activity
SN12C [10] = experiment: Cytotoxicity against human SN12C cells assessed as cell growth at 0.1 uM after 48 hrs by sulforhodamine B assay relative to control; details: read-out: Activity
A549 [11] = experiment: Cytotoxicity against human A549/ATCC cells assessed as growth inhibition after 48 hrs by sulforhodamine B assay; details: A549, 48 h
U-251 = experiment: Cytotoxicity against human U251 cells assessed as cell growth at 1 uM after 48 hrs by sulforhodamine B assay relative to control; details: U-251, 48 h, read-out: Activity
OVCAR-5 = experiment: Cytotoxicity against human OVCAR5 cells assessed as growth inhibition after 48 hrs by sulforhodamine B assay; details: OVCAR-5, 48 h
TK-10 = experiment: Cytotoxicity against human TK10 cells assessed as cell growth at 100 uM after 48 hrs by sulforhodamine B assay relative to control; details: TK-10, 48 h, read-out: Activity
K562 = experiment: Cytotoxicity against human K562 cells assessed as cell growth at 1 uM after 48 hrs by sulforhodamine B assay relative to control; details: K562, 48 h, read-out: Activity
786-0 = experiment: Cytotoxicity against human 786-0 cells assessed as cell growth at 0.1 uM after 48 hrs by sulforhodamine B assay relative to control; details: 786-0, 48 h, read-out: Activity
HCC 2998 [12] = experiment: Cytotoxicity against human HCC2998 cells assessed as cell growth at 0.01 uM after 48 hrs by sulforhodamine B assay relative to control; details: HCC 2998, 48 h, read-out: Activity
T47D [13] = experiment: Cytotoxicity against human T47D cells assessed as cell growth at 10 uM after 48 hrs by sulforhodamine B assay relative to control; details: read-out: Activity
T47D [14] = experiment: Cytotoxicity against human T47D cells assessed as cell growth at 0.1 uM after 48 hrs by sulforhodamine B assay relative to control; details: read-out: Activity
OVCAR-4 = experiment: Cytotoxicity against human OVCAR4 cells assessed as cell growth at 1 uM after 48 hrs by sulforhodamine B assay relative to control; details: OVCAR-4, 48 h, read-out: Activity
ACHN = experiment: Cytotoxicity against human ACHN cells assessed as cell growth at 0.01 uM after 48 hrs by sulforhodamine B assay relative to control; details: read-out: Activity
A498 = experiment: Cytotoxicity against human A498 cells assessed as growth inhibition after 48 hrs by sulforhodamine B assay; details: A498, 48 h
COLO 205 [15] = experiment: Cytotoxicity against human COLO205 cells assessed as cell growth at 10 uM after 48 hrs by sulforhodamine B assay relative to control; details: COLO 205, 48 h, read-out: Activity
SN12C [16] = experiment: Cytotoxicity against human SN12C cells assessed as cell growth at 0.01 uM after 48 hrs by sulforhodamine B assay relative to control; details: read-out: Activity
Hs-578T = experiment: Cytotoxicity against human Hs 578T cells assessed as cell growth at 0.1 uM after 48 hrs by sulforhodamine B assay relative to control; details: read-out: Activity
RPMI-8226 [17] = experiment: Cytotoxicity against human RPMI8226 cells assessed as cell growth at 0.1 uM after 48 hrs by sulforhodamine B assay relative to control; details: RPMI-8226, 48 h, read-out: Activity

For `COc1ccc(-c2cc(/C=C/C(=O)c3cc(OC)c(OC)c(OC)c3)[nH]n2)cc1OC`, the GI50 (SW-620) was 1.5 µM, the LC50 (lethal concentration, 50% net cell kill) (SW-620) was over 100 µM and the TGI (SW-620) was 4.16 µM. The growth at 10 µM (MDA-MB-435 [1]) was -55%, the growth at 1 µM (HCT-116) was 27% and the growth at 0.01 µM (A549 [2]) was 101%. It also gave a growth at 100 µM (MCF7) of -43%, a growth at 1 µM (A549 [3]) of 82% and a growth at 0.01 µM (NCI-H322M) of 93%. It also gave a growth at 0.01 µM (HCT-15) of 99%, a GI50 (RPMI-8226 [4]) of 0.29 µM and an LC50 (RPMI-8226 [4]) of over 100 µM. It also gave a TGI (RPMI-8226 [4]) of 1.66 µM, a growth at 100 µM (MOLT-4 [5]) of -15% and a growth at 1 µM (UO-31) of 67%. It also gave a growth at 1 µM (MDA-MB-435 [6]) of 85%, a growth at 0.1 µM (COLO 205 [7]) of 89% and a GI50 (HCC 2998 [8]) of 1.9 µM. The LC50 (HCC 2998 [8]) was 6.09 µM, the TGI (HCC 2998 [8]) was 3.4 µM and the growth at 0.1 µM (MOLT-4 [9]) was 95%. It also gave a GI50 (SR) of 0.2 µM, a TGI (SR) of 2.26 µM and a CC50 (SR) of over 100 µM. It also gave a GI50 (SNB-19) of 1.8 µM, a TGI (SNB-19) of 5.32 µM and a CC50 (SNB-19) of 27.1 µM. The GI50 (SK-OV-3) was 5.47 µM, the LC50 (SK-OV-3) was 45.5 µM and the TGI (SK-OV-3) was 19 µM. It also gave a growth at 100 µM (M14) of -74%, a growth at 0.1 µM (SN12C [10]) of 99% and a GI50 (A549 [11]) of 2.39 µM. It also gave an LC50 (concentration giving 50% net cell kill) (A549 [11]) of 62.4 µM, a TGI (A549 [11]) of 9.34 µM and a growth at 1 µM (U-251) of 65%. For the same compound, the GI50 (OVCAR-5) was 1.76 µM, the LC50 (OVCAR-5) was 13.7 µM and the TGI (OVCAR-5) was 4.31 µM. For the same compound, the growth at 100 µM (TK-10) was -94%, the growth at 1 µM (K562) was 43% and the growth at 0.1 µM (786-0) was 91%. The growth at 0.01 µM (HCC 2998 [12]) was 95%, the growth at 10 µM (T47D [13]) was -37% and the growth at 0.1 µM (T47D [14]) was 83%. It also gave a growth at 1 µM (OVCAR-4) of 66%, a growth at 0.01 µM (ACHN) of 95% and a GI50 (A498) of 1.46 µM. It also gave an LC50 (A498) of 22.3 µM, a TGI (A498) of 4.99 µM and a growth at 10 µM (COLO 205 [15]) of -72%. It also gave a growth at 0.01 µM (SN12C [16]) of 98%, a growth at 0.1 µM (Hs-578T) of 97% and a growth at 0.1 µM (RPMI-8226 [17]) of 85%.
Work on `COc1cc2c(cc1OC)C(=O)/C(=C/c1cc(-c3ccc4c(c3)OCO4)n[nH]1)C2` yielded a GI50 (SW-620) of 1.35 µM, an LC50 (lethal concentration, 50% net cell kill) (SW-620) of 8.96 µM and a TGI (SW-620) of 3.47 µM. For the same compound, the growth at 10 µM (MDA-MB-435 [1]) was -88%, the growth at 1 µM (HCT-116) was 51% and the growth at 0.01 µM (A549 [2]) was 98%. For the same compound, the growth at 100 µM (MCF7) was -72%, the growth at 1 µM (A549 [3]) was 83% and the growth at 0.01 µM (NCI-H322M) was 102%. For the same compound, the growth at 0.01 µM (HCT-15) was 95%, the GI50 (RPMI-8226 [4]) was 0.23 µM and the LC50 (RPMI-8226 [4]) was 5.52 µM. For the same compound, the TGI (RPMI-8226 [4]) was 0.623 µM, the growth at 100 µM (MOLT-4 [5]) was -17% and the growth at 1 µM (UO-31) was 68%. For the same compound, the growth at 1 µM (MDA-MB-435 [6]) was 93%, the growth at 0.1 µM (COLO 205 [7]) was 105% and the GI50 (HCC 2998 [8]) was 1.88 µM. The LC50 (HCC 2998 [8]) was 6.29 µM, the TGI (HCC 2998 [8]) was 3.44 µM and the growth at 0.1 µM (MOLT-4 [9]) was 99%. It also gave a GI50 (SR) of 0.62 µM, a TGI (SR) of 4.11 µM and a CC50 (SR) of over 100 µM. The GI50 (SNB-19) was 1.55 µM, the TGI (SNB-19) was 2.96 µM and the CC50 (SNB-19) was 5.63 µM. The GI50 (SK-OV-3) was 2.89 µM, the LC50 (SK-OV-3) was 25.2 µM and the TGI (SK-OV-3) was 7.16 µM. The growth at 100 µM (M14) was -80%, the growth at 0.1 µM (SN12C [10]) was 93% and the GI50 (A549 [11]) was 1.96 µM. The LC50 (concentration giving 50% net cell kill) (A549 [11]) was 37.1 µM, the TGI (A549 [11]) was 5.45 µM and the growth at 1 µM (U-251) was 56%. It also gave a GI50 (OVCAR-5) of 1.56 µM, an LC50 (OVCAR-5) of 5.79 µM and a TGI (OVCAR-5) of 3 µM. The growth at 100 µM (TK-10) was -95%, the growth at 1 µM (K562) was 62% and the growth at 0.1 µM (786-0) was 98%. It also gave a growth at 0.01 µM (HCC 2998 [12]) of 92%, a growth at 10 µM (T47D [13]) of -90% and a growth at 0.1 µM (T47D [14]) of 95%. The growth at 1 µM (OVCAR-4) was 57%, the growth at 0.01 µM (ACHN) was 104% and the GI50 (A498) was 1.33 µM. The LC50 (A498) was 6 µM, the TGI (A498) was 2.83 µM and the growth at 10 µM (COLO 205 [15]) was -97%. It also gave a growth at 0.01 µM (SN12C [16]) of 95%, a growth at 0.1 µM (Hs-578T) of 99% and a growth at 0.1 µM (RPMI-8226 [17]) of 93%.
